This note sets out measurements from patent US5250428A, “L-gulono-gamma-lactone-dehydrogenase for producing vitamin C” (Hoffmann-La Roche Inc., priority 1990, dated 1993).

Values joined by “and” are separate entries in the source; they are usually repeats but may differ in a detail not shown here. Equal values may be shown once.

The subject of test [1] is L-gulono-gamma-lactone dehydrogenase (GLDH). The test is described as follows: Substrate specificity of GLDH (DCIP reduction enzyme assay). The format is biochemical, Gluconobacter oxydans DSM 4025. Particulars: substrate 400 mM; for Relative activity (%): 25° C., DCIP/PMS, L-gulono-gamma-lactone = 100. As to the method: (§1) The enzyme assay was performed at 25° C. by measuring the decrease of absorbance at 600 nm of DCIP spectrophotometrically. One unit of enzyme activity was defined as the amount of enzyme which catalyzed the reduction of 1 μmole of DCIP per minute. The extinction coefficient of DCIP at pH 7.0 was taken as 14.5 mM^-1. A cuvette with 1 cm light path contained 0.16 mM DCIP, 1.6 mM phenazine methosulfate, 200 mM potassium phosphate buffer, 400 mM L-gulono-gamma-lactone, enzyme solution and water in a final volume of 0.5 ml. A reference cuvette contained all components except L-gulono gamma-lactone. The reaction was started by the addition of L-gulono-gamma-lactone. Enzyme activity was measured as the initial reduction rate of DCIP.
Substrate specificity of the enzyme was determined using the same enzyme assay method as described as above except that the various substrate solutions (400 mM) were used instead of L-gulono-gamma-lactone.

Test [2] shares this test system. Kind of test: Effect of metal ions on GLDH enzyme activity. The format is biochemical, Gluconobacter oxydans DSM 4025. The protocol:
The enzyme assay was performed at 25° C. by measuring the decrease of absorbance at 600 nm of DCIP spectrophotometrically. One unit of enzyme activity was defined as the amount of enzyme which catalyzed the reduction of 1 μmole of DCIP per minute. […] A reference cuvette contained all components except L-gulono gamma-lactone. The reaction was started by the addition of L-gulono-gamma-lactone. Enzyme activity was measured as the initial reduction rate of DCIP.
Using the same enzyme assay method as described under 1), the effect of various metal ions on the enzyme activity was examined.

The test system is the same in test [3]. Kind of test: Effect of inhibitors on GLDH enzyme activity. Format: biochemical, Gluconobacter oxydans DSM 4025. The protocol:
as §1
Using the same enzyme assay method as described above, the effect of various inhibitors on the enzyme activity was examined. No compounds tested gave an inhibitory effect on the GLDH.

The test system is the same in test [4]. Particulars: conversion of L-gulono-gamma-lactone to L-ascorbic acid.
Test [5] has the same test system. The test is described as follows: Measurement of the Km value (DCIP enzyme assay). Format: biochemical, Gluconobacter oxydans DSM 4025. The protocol:
as §1
Using the same enzyme assay method as described above, the rate of the oxidizing reaction with varying the concentrations of L-gulono-gamma lactone from 0.18 mM to 90 mM was measured to determine the Km value for L-gulono-gamma-lactone.

As for `O=C[C@@H](O)[C@@H](O)[C@H](O)[C@@H](O)CO` [L-Gulose], the “Relative activity (%)” value in test [1] is given as 0%.
On to `O.O.[Na+].[Na+].[O]=[Mo](=[O])([O-])[O-]` [Na2 MoO4.2H2 O], for which the “Relative activity (%)” value in test [2] (metal 0.19 mM) is listed as 104%; in test [2] (metal 0.38 mM), 96%; in test [2] (metal 0.89 mM) it was 88%.
Regarding TiCl, the figures for the “Relative activity (%)” value in test [2] (metal 0.19 mM), in test [2] (metal 0.38 mM) and in test [2] (metal 0.89 mM) were 88%, 92% and 80%, respectively.
In the same order, the values of MnSO4.4-6H2 O are 100%, 0% and 0%.
For the compound `[N-]=[N+]=[N-]` [Sodium azide], the “Relative activity (%)” value in test [3] (inhibitor 0.96 mM) is 100%; in test [3] (inhibitor 1.89 mM), 97.6%; in test [3] (inhibitor 4.46 mM) it was 97.6%.
Turning to `O=C(O)CI` [Monoiodoacetate], the “Relative activity (%)” value in test [3] was 104.8% and 100% and 92.9%.
On the same count and under the same terms, to `O=C(O)CN(CCN(CC(=O)O)CC(=O)O)CC(=O)O` [EDTA] belongs 95.2% and 100% and 90.5%.
On to `CCN1C(=O)C=CC1=O` [N-Ethyl-maleimide], for which the “Relative activity (%)” value in test [3] (inhibitor 0.96 mM) is on record as 95.2%; in test [3] (inhibitor 1.89 mM), 100%; in test [3] (inhibitor 4.46 mM), 100%.
In the case of `[Cl-].[Cl-].[Zn+2]` [ZnCl2], the “Relative activity (%)” value was 88% in test [2] (metal 0.19 mM), 88% in test [2] (metal 0.38 mM) and 80% in test [2] (metal 0.89 mM).
Turning to `O=C(O)c1cc[c]([Hg][Cl])cc1` [PCMB, p-chloro-mercuribenzoate], the “Relative activity (%)” value in test [3] (inhibitor 0.96 mM) was 90.5%; in test [3] (inhibitor 1.89 mM) it was 102.4%; in test [3] (inhibitor 4.46 mM), 100%.
Take `O.O.O.O.O.O.O.O=S(=O)([O-])[O-].[Ni+2]` [NiSO4.7H2 O]: the “Relative activity (%)” value in test [2] (metal 0.19 mM) stood at 96%; in test [2] (metal 0.38 mM), 96%; in test [2] (metal 0.89 mM), 88%.
`O.O.O.O.O.O.O.O=S(=O)([O-])[O-].[Co+2]` [CoSO4.7H2 O]: the “Relative activity (%)” value in test [2] (metal 0.19 mM) is on record as 96%; in test [2] (metal 0.38 mM), 108%; in test [2] (metal 0.89 mM) it was 88%.
As to `O=C1O[C@H]([C@@H](O)CO)[C@@H](O)[C@@H]1O` [L-Galactono-r-lactone, L-galactono-gamma-lactone], in test [1], the “activity of GLDH on substrate” value is recorded as “does not use L-galactono-gamma-lactone as a substrate” and the “Relative activity (%)” value worked out at 0%.
Regarding `[Mn+2]` [Mn^2+], in test [2], the “inhibition of the enzyme by metal ion” value was “strong inhibition”.
Regarding `O.O.O.O.O.O.[Cl-].[Cl-].[Co+2]` [CoCl2.6H2 O], the “Relative activity (%)” value is 102% in test [2] (metal 0.19 mM), 110% in test [2] (metal 0.38 mM) and 100% in test [2] (metal 0.89 mM).
Take `O=C[C@H](O)[C@@H](O)[C@H](O)CO` [D-Xylose]: in test [1], the “activity of GLDH on substrate” value is “highly active” and the “Relative activity (%)” value turned out to be 110.6%.
For `O.O.O.O.O.O.O.O=[As]([O-])([O-])O.[Na+].[Na+]` [Na2 HAsO4 7H2 O], the “Relative activity (%)” value in test [3] (inhibitor 0.96 mM) was 95.2%; in test [3] (inhibitor 1.89 mM), 104.8%; in test [3] (inhibitor 4.46 mM), 97.6%.
Regarding `O.O.O.O.O.O.O.O=S(=O)([O-])[O-].[Zn+2]` [ZnSO4.7H2 O], the “Relative activity (%)” value is on record as 88% in test [2] (metal 0.19 mM), 88% in test [2] (metal 0.38 mM) and 76% in test [2] (metal 0.89 mM).
Fe(SO4)3.xH2 O: the “Relative activity (%)” value in test [2] (metal 0.19 mM) was found to be 104%; in test [2] (metal 0.38 mM) it was 92%; in test [2] (metal 0.89 mM), 76%.
As for `O.O.O.O.O.O=S(=O)([O-])[O-].[Cu+2]` [CuSO4.5H2 O], the “Relative activity (%)” value in test [2] (metal 0.19 mM) turned out to be 80%; in test [2] (metal 0.38 mM), 20%; in test [2] (metal 0.89 mM) it was 0%.
On to `O=C[C@H](O)[C@@H](O)[C@@H](O)[C@H](O)CO` [D-Galactose], for which the “Relative activity (%)” value in test [1] was 0%.
`O.O.O.O.O=[N+]([O-])[O-].O=[N+]([O-])[O-].[Ca+2]` [Ca(NO3)2.4H2 O]: the figures for the “Relative activity (%)” value in test [2] (metal 0.19 mM), in test [2] (metal 0.38 mM) and in test [2] (metal 0.89 mM) were 100%, 100% and 96%, respectively.
Turning to `O.O.O.O.O.O.O.O=S(=O)([O-])[O-].[Mg+2]` [MgSO4.7H2 O], the “Relative activity (%)” value in test [2] (metal 0.19 mM) was 92%; in test [2] (metal 0.38 mM), 96%; in test [2] (metal 0.89 mM) it was 92%.
As to `NN` [Hydrazine monohydrate], the “Relative activity (%)” value in test [3] (inhibitor 1.0 mM) came to 100%.
For the compound `Cl.NO` [Hydroxylamine hydrocloride], the “Relative activity (%)” value in test [3] (inhibitor 1.0 mM) and in test [3] (inhibitor 2.0 mM) was 100% each time.
Turning to `[Cu+2]` [Cu^2+], the “inhibition of the enzyme by metal ion” value in test [2] is given as “strong inhibition”.
Take `[Ca+2].[Cl-].[Cl-]` [CaCl2]: the “Relative activity (%)” value in test [2] (metal 0.19 mM) is 96%; in test [2] (metal 0.38 mM) it was 104%; in test [2] (metal 0.89 mM) it was 96%.
For the compound `O=C[C@H](O)[C@H]1OC(=O)[C@@H](O)[C@H]1O` [D-Glucurono-r-lactone], in test [1], the “activity of GLDH on substrate” value was “weakly active” and the “Relative activity (%)” value is listed as 6.38%.
Take `O=O` [oxygen]: the “enzyme activity with oxygen as electron acceptor” value in test [4] was “lack of enzyme catalyzing activity”.
`O=C1O[C@H](CO)[C@@H](O)[C@H](O)[C@H]1O` [D-Glucono-δ-lactone]: the “Relative activity (%)” value in test [1] worked out at 0%.
Still for that read-out and setting: to `O=C[C@H](O)[C@@H](O)[C@H](O)[C@H](O)C(=O)O` [D-Glucuronic acid] belongs 0%.
Turning to `O=C[C@@H](O)[C@@H](O)[C@H](O)[C@H](O)CO` [D-Mannose], in test [1], the “activity of GLDH on substrate” value was “weakly active” and the “Relative activity (%)” value came to 7.23%.
Consider `O=C(O)[C@H](O)[C@@H](O)[C@H](O)[C@H](O)CO` [D-Gluconic acid], for which the “Relative activity (%)” value in test [1] is 0%.
For `O=S(=O)([O-])[O-].[Cu+2]` [CuSO4], the “Relative activity (%)” value in test [2] (metal 0.19 mM) was determined as 92%; in test [2] (metal 0.38 mM), 24%; in test [2] (metal 0.89 mM), 12%.
As to `[F-].[Na+]` [Sodium fluoride], the “Relative activity (%)” value in test [3] (inhibitor 0.96 mM) is 107.1%; in test [3] (inhibitor 1.89 mM), 114.3%; in test [3] (inhibitor 4.46 mM), 97.6%.
As for `O=C1O[C@H]([C@@H](O)CO)[C@H](O)[C@@H]1O` [L-Gulono-r-lactone, L-gulono-gamma-lactone], in test [5] (DCIP as the electron acceptor, substrate 0.18 mM to 90 mM, read-out: apparent Michaelis constant (Km)), the Km (usually the concentration of substrate that gives half-maximal velocity) worked out at 34.8 mM. Besides, the “substrate concentration of maximum reaction rate” value in test [5] (substrate varied 0.18 mM to 90 mM) is “about 71.8 mM”. In test [1], the “activity of GLDH on substrate” value was “highly active” and the “Relative activity (%)” value worked out at 100%.
On to `O.O.O.O.O.O.[Cl-].[Cl-].[Mg+2]` [MgCl2.6H2 O], for which the “Relative activity (%)” value in test [2] (metal 0.19 mM), in test [2] (metal 0.38 mM) and in test [2] (metal 0.89 mM) was 96% each time.
On to `O=C[C@H](O)[C@@H](O)[C@H](O)[C@H](O)CO` [D-Glucose], for which, in test [1], the “activity of GLDH on substrate” value was “weakly active” and the “Relative activity (%)” value worked out at 23.4%.
`O.O.[Cl][Cu][Cl]` [CuCl2.2H2 O]: the “Relative activity (%)” value in test [2] (metal 0.19 mM) is on record as 84%; in test [2] (metal 0.38 mM), 8%; in test [2] (metal 0.89 mM) it was 0%.
The like results for `O.O.O.O.[Cl][Mn][Cl]` [MnCl2.4H2 O] were, in that order, 100%, 0% and 0%.
Take `O.O.O.O=[N+]([O-])[O-].O=[N+]([O-])[O-].[Cu+2]` [Cu(NO3)2.3H2 O]: the figures for the “Relative activity (%)” value in test [2] (metal 0.19 mM), in test [2] (metal 0.38 mM) and in test [2] (metal 0.89 mM) were 88%, 24% and 0%, respectively.
